Measured values as given in publication PMC11878344 (Angewandte Chemie (International Ed. in English), 2025).

Assays:
HT-29 cells = test: Confocal live cell imaging of HT-29 cells; type: cell-based; conditions: inhibitor 10 μM; probe 9 0.15 μM
Source text: The enzymatic activity of MAGL plays a critical role in cancer lipid metabolism and is overexpressed in several particularly aggressive cancer cell lines.[56] Therefore, the expression levels of MAGL are considered a prognostic biomarker for the degree of cancer tumor differentiation and progression.[57] Here the colon cancer HT‐29 cell line is one of the prototypical systems regarding the impact of MAGL in proliferating and invasive cancer.[45, 58, 59] We studied the ability of probes 8–12 to detect MAGL by confocal imaging microscopy (Figure 6 A). Consistent staining of MAGL could be achieved with all optimized probes 8–12 carrying NBD, BODIPY, and SiR, respectively, providing a bright and stable fluorescent signal in live cancer cells. […]
For ABPP experiments, cell lysates containing equal amounts of protein were incubated with the appropriate concentration of activity-based probe for 30 min at room temperature. […] Samples were then separated by SDS-PAGE and bands were detected ChemiDoc Imager (Bio-Rad Laboratories). […] Gels were imaged and protein bands were quantified using Image Lab software (Bio-Rad Laboratories).
Fluorescence confocal microscopy. […]
Confocal live cell image acquisition. […] The probe fluorescence was monitored by kinetic measurements of 10 min with a break for probe administration. The fluorescence of one image per sample was captured at each time point. […]

[1] = test system: primary hippocampal neurons; test: Confocal imaging of live primary hippocampal neuron cultures; type: cell-based, mouse; conditions: inhibitor 10 μM, 2 h before labeling; p <0.01
Procedure: MAGL plays a vital role in neuronal inflammation[24, 66, 67] and the integrity of the blood–brain barrier.[68, 69] Therefore, we investigated the imaging capability of the probes in live dissociated primary hippocampal neuron cultures (Figure 6 C) as a prime model system in CNS research, particularly in the context of its role in shaping neurotransmitter release and synaptic plasticity properties.[70] Confocal microscopic imaging of the live cultures, at day 14–21 in vitro, was performed on cells treated with probe 9 (1 μM) and the particularly bright silicon‐rhodamine (SiR) probes 10 and 12 (0.5 μM) at 37 °C for 15 min, all of them producing a strong fluorescent signal. […] We observed an accumulation of the fluorescent signal in neuronal varicosities with a distribution that is reminiscent of that of synapses, indicating the localization of MAGL.
Hippocampal Neurons Staining
Preparation of primary neuron cultures. For neuron culture, glass coverslips (19 mm, #1.5
Epredia Deckgläser, CB00190RAC20MNZ0) were coated with PLL (Sigma-Aldrich, P4707; 1:12
dilution) in phosphate-buffered saline (PBS) for 2h at 37 °C. Hippocampal neurons were then […]
microscope for a maximum of 30 min. Images were then analyzed using FIJI. […]
analysis. The protein was analyzed using a Waters H-class instrument equipped with a quaternary […]

MAGL = test system: MAGL; set-up: method as in PMID 35089028, PMID 34764251, PMID 34328319, PMID 29498843; conditions: known MAGL ligands of Figure 1; cited from earlier work

In the case of `O=C(OC(CO)C(F)(F)F)N1CC2C(C1)C2c1ccn(-c2ccc(F)cc2)n1` (stereo not drawn) [PF-06795071], the “Effect of pre-incubation on probe 9 fluorescent signal” value (HT-29 cells) is listed as “completely suppressed the fluorescent signal”, the “Effect of pre-incubation on MAGL probe labeling” value [1] is listed as “strong decrease in mean fluorescent intensity” and the IC50 (MAGL) is listed as 3 nM.
